{"source": "patent US9394555B2", "about": "“Compositions comprising a polypeptide having cellulolytic enhancing activity and a dioxy compound and uses thereof” (priority 2010, dated 2016)", "molecules": {"B1": {"name": "T. aurantiacus GH61A polypeptide: GH61A polypeptide having cellulolytic enhancing activity (SEQ ID NO: 14), recombinantly produced in Aspergillus oryzae JaL250 (protein, listed as Thermoascus aurantiacus)", "chain": "MSFSKIIATAGVLASASLVAGHGFVQNIVIDGKYYGGYLVNQYPYMSNPPEVIAWSTTATDLGFVDGTGYQTPDIICHRGAKPGALTAPVSPGGTVELQWTPWPDSHHGPVINYLAPCNGDCSTVDKTQLEFFKIAESGLINDDNPPGIWASDNLIAANNSWTVTIPTTIAPGNYVLRHEIIALHSAQNQDGAQNYPQCINLQVTGGGSDNPAGTLGTALYHDTDPGILINIYQKLSSYIIPGPPLYTG"}}, "key": {"[1]": {"target": "T1, T. aurantiacus GH61A polypeptide (Thermoascus aurantiacus, UniProt G3XAP7, N13Y)", "assay": "Microcrystalline cellulose conversion assay II (Examples 10, 11), T. reesei CEL7A cellobiohydrolase I + A. oryzae CEL3A beta-glucosidase", "type": "biochemical", "conditions": "72 hours, 50° C.", "description": "A 5% microcrystalline cellulose slurry was prepared by addition of 2.5 g of AVICEL® PH101 to a graduated 50 ml screw-cap conical tube followed by approximately 40 ml of deionized water. Each conical tube was then mixed thoroughly by shaking/vortexing, and adjusted to 50 ml total with deionized water and mixed again. For samples containing dioxy compounds, a similar slurry was prepared by the addition of 100 mg of solid dioxy compound and 2.5 g of AVICEL® PH101 to a graduated 50 ml screw-cap conical tube followed by approximately 40 ml of deionized water. Each conical tube was then mixed thoroughly by shaking/vortexing, and adjusted to 50 ml total with deionized water and mixed again.\nThe dioxy compounds assayed include caffeic acid, dichlorophenolindophenol (DCPIP), ethyl gallate, gallic acid, 3,4-dihydroxybenzoic acid, pyrocatechol, pyrogallol, sinapinic acid (3,5 dimethoxy-4-hydroxy cinnamic acid), and tannic acid.\nIn all cases, the contents of the tube (5% microcrystalline cellulose slurry with or without 0.2% dioxy compound) were then quickly transferred to a 100 ml beaker and stirred rapidly with a magnetic stirrer. Five hundred μl aliquots of the 5% AVICEL® slurry were pipetted into wells of a 2.0 ml 96-deepwell plate (Axygen, Union City, Calif.) using a 1000 μl micropipette with a wide aperture tip (end of tip cut off about 2 mm from the base). One hundred μl of deionized water and 300 μl of 3.33 mM MnSO4-500 mM sodium acetate pH 5 were then added to each well. Enzyme mixtures were prepared and then added simultaneously to all wells in a volume of 100 μl, for a total of 1 ml in each reaction. […] All experiments reported were performed in triplicate.\n(§1) Primary analysis of the hydrolysis reactions was performed using an AGILENT® 1100 HPLC with CHEMSTATION® software equipped with an AMINEX™ HPX-87H column. After approximately 4 days, the deep-well plate was removed from the incubator and chilled overnight to 4° C. The plate was then mixed well by inversion and briefly centrifuged at 52×g in a SORVALL® RT7 centrifuge for 10 seconds. Samples were then mixed by pipetting, and 200 μl from each well were transferred to a MULTISCREEN® HV centrifuge filter plate assembly. The centrifuge filter plate assembly was centrifuged at 2000 rpm in a SORVALL® RT7 centrifuge for 20 minutes. […] Sugars were detected using a refractive index detector with quantification by integration compared to purified sugar standards.\nAll HPLC data processing was performed using MICROSOFT EXCEL™ software. […] In this assay only glucose was measured since beta-glucosidase was at high levels in all samples but the controls. The degree of cellulose conversion was calculated using Equation 1. Triplicate data points were averaged and standard deviation was calculated.\nThe microcrystalline cellulose hydrolysis assay was performed as described in Example 10.\nData were collected and analyzed, as described in Example 10, after 72 hours of incubation at 50° C."}, "[2]": {"target": "T1, T. aurantiacus GH61A polypeptide", "assay": "Bacterial cellulose conversion assay (Examples 15, 16)", "type": "biochemical", "conditions": "72 hours, 50° C.", "description": "Bacterial cellulose was prepared from NATA DE COCO (Huerto International Trading, Lucena City, Philippines) by extensive rinsing of one 500 ml can of cubes with water followed by homogenation for 15 minutes in 0.25 M sodium hydroxide using a WARING BLENDER® (Waring Products, Torrington, Conn., USA). The resulting slurry was pelleted at 40,000×g in a SORVALL® RT7 centrifuge. The supernatant was discarded. The pellet was then resuspended in 0.25 M sodium hydroxide and stirred overnight at 4° C. This procedure was repeated four times. Following the first washing steps, the cellulose was washed six times under similar conditions, substituting water for 0.25 M sodium hydroxide. Following the water washing, the cellulose was again homogenized for 15 minutes in a WARING BLENDER®, and adjusted to a final volume of 250 ml.\nA 0.36% bacterial cellulose slurry was prepared as described in Example 14. This 0.36% slurry was thoroughly resuspended by shaking, and quickly transferred to a 100 ml beaker and stirred rapidly with a magnetic stirrer. Seven hundred μl aliquots of the bacterial cellulose slurry were pipetted into wells of a 2.0 ml 96-deepwell plate (Axygen, Union City, Calif.) using a 1000 μl micropipette with a wide aperture tip (end of tip cut off about 2 mm from the base). One hundred μl of 10 mM MnSO4-500 mM sodium acetate pH 5 was then added to each well. One hundred μl of either deionized water, a 1% gallic acid solution dissolved in water, or a 1% gallic acid solution containing 50 mM EDTA were added to each well. Enzyme mixtures were prepared and then added simultaneously to all wells in a volume of 100 μl, for a total of 1 ml in each reaction. […] All experiments reported were performed in triplicate.\nas §1, with “briefly centrifuged 52×g in” for “briefly centrifuged at 52×g in”\nAll HPLC data processing was performed using MICROSOFT EXCEL™ software. […] In this assay only glucose was measured since beta-glucosidase was at high levels in all samples but the controls. Percent conversion was determined using Equation 1. Triplicate data points were averaged and standard deviation was calculated.\nThe bacterial cellulose hydrolysis assay was performed as described in Example 15.\nData was collected and analyzed, as described in Example 15, after 72 hours of incubation at 50° C."}}, "data": [{"molecule": "O=C(O)c1cc(O)c(O)c(O)c1", "note": "[gallic acid]", "values": [{"measurement": "conversion (hydrolysis) of the microcrystalline cellulose", "setting": "[1]; dioxy compound 0.1% w/w alone, no enzymes", "value": "no significant hydrolysis"}, {"measurement": "hydrolysis of the bacterial cellulose", "setting": "[2]; gallic acid 0.1% w/w + 5 mM EDTA + A. oryzae CEL3A beta-glucosidase (50 mg/g), no GH61", "value": "no significant hydrolysis"}, {"measurement": "hydrolysis of the bacterial cellulose", "setting": "[2]; gallic acid 0.1% w/w + 5 mM EDTA + T. aurantiacus GH61A polypeptide (50 mg/g), no beta-glucosidase", "value": "no significant hydrolysis"}, {"measurement": "conversion of the bacterial cellulose", "setting": "[2]; gallic acid 0.1% w/w + 5 mM EDTA, no enzymes", "value": "no significant conversion"}, {"measurement": "hydrolysis of the bacterial cellulose", "setting": "[2]; gallic acid 0.1% w/w + A. oryzae CEL3A beta-glucosidase (50 mg/g), no GH61", "value": "no significant hydrolysis"}, {"measurement": "conversion of the bacterial cellulose", "setting": "[2]; gallic acid 0.1% w/w alone, no enzymes", "value": "no significant conversion"}]}, {"molecule": "B1", "values": [{"measurement": "conversion of the microcrystalline cellulose", "setting": "[1]; T. aurantiacus GH61A polypeptide (10 mg/g) + cellobiohydrolase I + beta-glucosidase (5 mg/g each), no dioxy compound", "value": "21.4±0.5", "unit": "%"}, {"measurement": "conversion of the bacterial cellulose", "setting": "[2]; T. aurantiacus GH61A polypeptide (50 mg/g) + A. oryzae CEL3A beta-glucosidase (50 mg/g), no gallic acid", "value": "no significant conversion"}, {"measurement": "conversion of the bacterial cellulose", "setting": "[2]; T. aurantiacus GH61A polypeptide (50 mg/g) alone", "value": "1.5±1.4", "unit": "%"}]}]}
